In the assay the target is T1, Human NMDA (NR1/NR2B) Receptor (Homo sapiens, UniProt Q13224).
T1 construct: host or cells: HEK293
T1 sequence (Q13224 27-1484, other chains not shown): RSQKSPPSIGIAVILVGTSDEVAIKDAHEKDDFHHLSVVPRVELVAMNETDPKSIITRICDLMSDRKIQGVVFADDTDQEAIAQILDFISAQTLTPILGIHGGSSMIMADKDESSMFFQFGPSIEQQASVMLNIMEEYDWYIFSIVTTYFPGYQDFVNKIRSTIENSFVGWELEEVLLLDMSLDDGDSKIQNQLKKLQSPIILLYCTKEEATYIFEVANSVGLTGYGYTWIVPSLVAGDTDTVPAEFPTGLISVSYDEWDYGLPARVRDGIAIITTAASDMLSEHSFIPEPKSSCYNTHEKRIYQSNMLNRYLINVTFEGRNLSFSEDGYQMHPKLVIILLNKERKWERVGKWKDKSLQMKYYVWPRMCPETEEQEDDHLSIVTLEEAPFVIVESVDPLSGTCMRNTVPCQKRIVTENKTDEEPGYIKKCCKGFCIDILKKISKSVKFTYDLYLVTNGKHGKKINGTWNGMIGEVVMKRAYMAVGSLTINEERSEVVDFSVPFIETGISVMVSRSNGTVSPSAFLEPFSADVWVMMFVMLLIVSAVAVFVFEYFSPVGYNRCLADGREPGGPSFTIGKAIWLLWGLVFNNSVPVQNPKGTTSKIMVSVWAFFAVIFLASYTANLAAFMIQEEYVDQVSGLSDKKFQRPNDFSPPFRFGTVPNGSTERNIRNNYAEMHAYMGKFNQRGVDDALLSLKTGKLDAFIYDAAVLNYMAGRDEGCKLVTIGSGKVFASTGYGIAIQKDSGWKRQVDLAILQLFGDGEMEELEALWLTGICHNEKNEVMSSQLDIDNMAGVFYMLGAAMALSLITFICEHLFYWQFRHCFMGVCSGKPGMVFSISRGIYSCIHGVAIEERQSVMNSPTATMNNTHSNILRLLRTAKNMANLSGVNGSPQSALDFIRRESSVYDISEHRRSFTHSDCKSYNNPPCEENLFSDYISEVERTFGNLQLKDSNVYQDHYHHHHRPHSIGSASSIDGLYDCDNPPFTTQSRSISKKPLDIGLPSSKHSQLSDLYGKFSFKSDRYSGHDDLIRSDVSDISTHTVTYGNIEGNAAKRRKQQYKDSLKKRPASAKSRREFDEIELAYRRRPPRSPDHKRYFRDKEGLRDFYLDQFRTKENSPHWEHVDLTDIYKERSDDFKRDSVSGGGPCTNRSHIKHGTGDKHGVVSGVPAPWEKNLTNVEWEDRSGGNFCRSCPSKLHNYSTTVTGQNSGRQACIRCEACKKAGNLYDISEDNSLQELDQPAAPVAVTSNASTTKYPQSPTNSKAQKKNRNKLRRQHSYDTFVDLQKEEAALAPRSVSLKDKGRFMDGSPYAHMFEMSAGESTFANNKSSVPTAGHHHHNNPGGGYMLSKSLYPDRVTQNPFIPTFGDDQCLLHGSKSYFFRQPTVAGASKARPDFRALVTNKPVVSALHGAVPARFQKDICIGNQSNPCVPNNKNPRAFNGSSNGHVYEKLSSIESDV
Description: NR2B Ca2+ influx assay. The following applies: 10 μM compound; HEK293 cells expressing GRIN1 and GRIN2B; glutamic acid/glycine-induced Ca2+ influx, Fluo-4 fluorescence; read-out: inhibitory rate (10 μM compound concentration). The assay is classed as cell-based. An excerpt:
Experimental Example 1 NR2B Ca^2+ Influx Assay
To confirm the “antagonistic action on an NMDA receptor containing the NR2B subunit” of the compound of the present invention, human embryonic kidney cell expressing the “NMDA receptor composed of four subunits including 2 sets of heterodimers of NR1 and NR2B”, specifically HEK293 cell expressing human glutamate ionotropic receptor NMDA type subunit 1 (GRIN1) and human glutamate ionotropic receptor NMDA type subunit 2B (GRIN2B), was used and the activation suppressive effect (inhibitory activity) on the receptors by the compound of the present invention was measured.
HEK293 cells that express GRIN1 and GRIN2B were purchased from ChanTest (Human NMDA (NR1/NR2B) Receptor-expressing, stable replicating cell line (HEK293) catalog No. CT6121).
As an index of the NMDA receptor activation, intracellular calcium ion (Ca^2+) influx caused by the binding of glycine and glutamic acid with NR1 and NR2B, respectively, was used.
HEK293 cells that express GRIN1 and GRIN2B were cultured in a cell culture flask in DMEM/F-12 (COSMO BIO, 10-092-CM) medium added with 10% FBS (fetal bovine serum, AusGene), 100 units/mL penicillin, 100 μg/mL streptomycin, 500 μg/mL neomycin, 100 μg/mL Zeocin (registered trade mark, Invitrogen), 5 μg/mL Blasticidin, in an incubator (37° C., 5% CO2).
The cells were detached from flask with trypsin the day before the assay, suspended in a seeding medium (DMEM (Invitrogen, 31053) added with 10% FBS, 100 units/mL penicillin, 100 μg/mL streptomycin) at 8×10^5 cells/mL, seeded by 25 μL/well in a 384-well plate (Falcon, 356663) at 20000 cells/well, and cultured overnight in an incubator. On the day of the assay, tetracycline (Wako Pure Chemical Industries, Ltd., 209-16561) was diluted with the seeding medium at 2 μg/mL, added at 25 μL/well to the plate seeded with the cells, and cultured for 2 hr in an incubator. Thereafter, the medium was removed, and the cells were washed with 50 μL/well assay buffer (137 mM NaCl, 4 mM KCl, 1.8 mM CaCl2, 10 mM HEPES (pH 7.2), 10 mM Glucose, 0.1% BSA). Then, a loading buffer (assay buffer added with 2.5 μM Fluo-4AM, 2 mM Amaranth, 1 mM Tartrazine) was added at 25 μL/well, and incubation was performed in the incubator for 30 min, and at room temperature for 15 min. A solution (25 μL/well) of the Example compound diluted with the above-mentioned assay buffer at 30 μM (final concentration 10 μM) was added, and the cells were stood for 15 min at room temperature. Using FDSS7000EX/μCELL (Hamamatsu Photonics K.K.), 25 μL/well of an assay buffer containing 30 μM glutamic acid, 30 μM glycine was added, and the fluorescence signal at wavelength of Excitation 480 nm, Emission 540 nm was measured every 3 seconds for 5 min. The inhibitory activity was calculated as a relative activity value (inhibitory rate) that inhibits 100% of the cumulative value of the fluorescence value of a well added with an assay buffer free of glutamic acid, glycine, relative to the cumulative value of the fluorescence value of each well.
As to `Cc1ccncc1CNC(=O)c1cc(F)c(C(F)F)c(F)c1` [Example 57, 4-(difluoromethyl)-3,5-difluoro-N-[(4-methylpyridin-3-yl)methyl]benzamide], the inhibition at 10 µM worked out at 78%.

On to `COc1c(F)cc(C(=O)NCc2cnccc2C)cc1F` [Example 71, 3,5-difluoro-4-methoxy-N-[(4-methylpyridin-3-yl)methyl]benzamide], for which the inhibition at 10 µM turned out to be 91%.

Take `COc1c(F)cc(C(=O)NCc2cncc(F)c2C)cc1F` [Example 67, 3,5-difluoro-N-[(5-fluoro-4-methylpyridin-3-yl)methyl]-4-methoxybenzamide]: the inhibition at 10 µM turned out to be 92%.

On to `Cc1ccncc1CNC(=O)c1cnc(C(C)(F)F)c(F)c1` [Example 93, 6-(1,1-difluoroethyl)-5-fluoro-N-[(4-methylpyridin-3-yl)methyl]pyridine-3-carboxamide], for which the inhibition at 10 µM amounted to 90%.

Take `Cc1ccncc1CNC(=O)c1csc(C2CC2)c1` [Example 56, 5-cyclopropyl-N-[(4-methylpyridin-3-yl)methyl]thiophene-3-carboxamide]: the inhibition at 10 µM was 93%.

For `Cc1ccncc1CNC(=O)c1ccc(C(F)F)c(Cl)c1` [Example 59, 3-chloro-4-(difluoromethyl)-N-[(4-methylpyridin-3-yl)methyl]benzamide], the inhibition at 10 µM stood at 93%.

For the compound `CCOc1ncc(C(=O)NCc2cncnc2OC)cc1Cl` [Example 85, 5-chloro-6-ethoxy-N-[(4-methoxypyrimidin-5-yl)methyl]pyridine-3-carboxamide], the inhibition at 10 µM came out at 87%.

As to `Cc1ncncc1CNC(=O)c1cnc(OC(F)F)c(F)c1` [Example 31, 6-(difluoromethoxy)-5-fluoro-N-[(4-methylpyrimidin-5-yl)methyl]pyridine-3-carboxamide], the inhibition at 10 µM turned out to be 68%.

Consider `Cc1ccncc1CNC(=O)c1ccc(C(F)F)c(F)c1` [Example 58, 4-(difluoromethyl)-3-fluoro-N-[(4-methylpyridin-3-yl)methyl]benzamide], for which the inhibition at 10 µM amounted to 85%.

Regarding `COc1ncncc1CNC(=O)c1cnc(C(C)(F)F)c(Cl)c1` [Example 96, 5-chloro-6-(1,1-difluoroethyl)-N-[(4-methoxypyrimidin-5-yl)methyl]pyridine-3-carboxamide], the inhibition at 10 µM is 85%.

For `COc1ncncc1CNC(=O)c1cnc(C(C)(F)F)c(F)c1` [Example 92, 6-(1,1-difluoroethyl)-5-fluoro-N-[(4-methoxypyrimidin-5-yl)methyl]pyridine-3-carboxamide], the inhibition at 10 µM came out at 86%.

Take `O=C(NCc1cncnc1OC1CC1)c1cnc(C2CC2)c(F)c1` [Example 81, 6-cyclopropyl-N-{[4-(cyclopropyloxy)-pyrimidin-5-yl]methyl}-5-fluoropyridine-3-carboxamide]: the inhibition at 10 µM came out at 90%.

With `CCOc1c(F)cncc1CNC(=O)c1cnc(OC(F)F)c(F)c1` [Example 61, 6-(difluoromethoxy)-N-[(4-ethoxy-5-fluoropyridin-3-yl)methyl]-5-fluoropyridine-3-carboxamide], the inhibition at 10 µM was 95%.

Consider `COc1ncncc1CNC(=O)c1ccc(OC(F)(F)F)cc1` [Example 26, N-[(4-methoxypyrimidin-5-yl)methyl]-4-(trifluoromethoxy)-benzamide], for which the inhibition at 10 µM came to 93%.

On to `COc1ccncc1CNC(=O)c1ccc(OC(F)(F)F)cc1` [Example 7, N-[(4-methoxypyridin-3-yl)methyl]-4-(trifluoromethoxy)benzamide], for which the inhibition at 10 µM worked out at 91%.

Consider `CCOc1c(F)cc(C(=O)NCc2cnccc2C)cc1F` [Example 72, 4-ethoxy-3,5-difluoro-N-[(4-methylpyridin-3-yl)methyl]benzamide], for which the inhibition at 10 µM was found to be 87%.

Take `O=C(NCc1cncc(F)c1OC1CC1)c1cnc(OC(F)F)c(F)c1` [Example 39, N-{[4-(cyclopropyloxy)-5-fluoropyridin-3-yl]methyl}-6-(difluoromethoxy)-5-fluoropyridine-3-carboxamide]: the inhibition at 10 µM was determined as 97%.

As for `CCOc1ccncc1CNC(=O)c1ccc(OC(F)F)c(F)c1` [Example 11, 4-(difluoromethoxy)-N-[(4-ethoxypyridin-3-yl)methyl]-3-fluorobenzamide], the inhibition at 10 µM turned out to be 95%.

As to `Cc1ccncc1CNC(=O)c1cc(F)c(OC(F)F)c(F)c1` [Example 55, 4-(difluoromethoxy)-3,5-difluoro-N-[(4-methylpyridin-3-yl)methyl]benzamide], the inhibition at 10 µM was determined as 91%.

Take `CC(F)(F)c1ncncc1CNC(=O)c1cnc(OC(F)F)c(F)c1` [Example 29, N-{[4-(1,1-difluoroethyl)-pyrimidin-5-yl]methyl}-6-(difluoromethoxy)-5-fluoropyridine-3-carboxamide]: the inhibition at 10 µM came to 92%.

Take `Cc1c(F)cncc1CNC(=O)c1cnc(C2CC2)c(F)c1` [Example 80, 6-cyclopropyl-5-fluoro-N-[(5-fluoro-4-methylpyridin-3-yl)methyl]pyridine-3-carboxamide]: the inhibition at 10 µM turned out to be 94%.

`Cc1c(F)cncc1CNC(=O)c1cnc(C(C)(F)F)c(F)c1` [Example 94, 6-(1,1-difluoroethyl)-5-fluoro-N-[(5-fluoro-4-methylpyridin-3-yl)methyl]pyridine-3-carboxamide]: the inhibition at 10 µM came out at 91%.

As to `O=C(NCc1cncnc1OC1CC1)c1cc(F)c(OC(F)F)c(F)c1` [Example 76, N-{[4-(cyclopropyloxy)-pyrimidin-5-yl]methyl}-4-(difluoromethoxy)-3,5-difluorobenzamide], the inhibition at 10 µM was determined as 95%.

For the compound `Cc1c(F)cncc1CNC(=O)c1cnc(C2CC2(F)F)c(Cl)c1` (stereo not drawn) [Example 104, 5-chloro-6-(2,2-difluorocyclopropyl)-N-[(5-fluoro-4-methylpyridin-3-yl)methyl]pyridine-3-carboxamide], the inhibition at 10 µM stood at 95%.

As to `COc1ccncc1CNC(=O)c1cnc(OC(F)(F)F)c(F)c1` [Example 34, 5-fluoro-N-[(4-methoxypyridin-3-yl)methyl]-6-(trifluoromethoxy)pyridine-3-carboxamide], the inhibition at 10 µM is 97%.

Consider `O=C(NCc1cncnc1C1CC1)c1cnc(OC(F)F)c(F)c1` [Example 23, N-[(4-cyclopropylpyrimidin-5-yl)methyl]-6-(difluoromethoxy)-5-fluoropyridine-3-carboxamide], for which the inhibition at 10 µM worked out at 95%.

For `COc1ncncc1CNC(=O)c1cc(F)c(OC)c(Cl)c1` [Example 84, 3-chloro-5-fluoro-4-methoxy-N-[(4-methoxypyrimidin-5-yl)methyl]benzainide], the inhibition at 10 µM amounted to 91%.

For the compound `O=C(NCc1cncnc1OC1CC1)c1cnc(OC(F)F)c(Cl)c1` [Example 78, 5-chloro-N-{[4-(cyclopropyloxy)pyrimidin-5-yl]methyl}-6-(difluoromethoxy)pyridine-3-carboxamide], the inhibition at 10 µM worked out at 94%.

`O=C(NCc1cnccc1OC(F)F)c1ccc(OC(F)(F)F)c(F)c1` [Example 112, N-[(4-(difluoromethoxy)-pyridin-3-yl)methyl]-3-fluoro-4-(trifluoromethoxy)-benzamide]: the inhibition at 10 µM is 96%.

`COc1ncncc1CNC(=O)c1cnc(C2CC2)c(F)c1` [Example 82, 6-cyclopropyl-5-fluoro-N-[(4-methoxypyrimidin-5-yl)methyl]pyridine-3-carboxamide]: the inhibition at 10 µM was 89%.

(Values after patent publication US11952344B2, “Heterocyclic compound and use thereof” (TAKEDA PHARMACEUTICAL COMPANY LIMITED, priority 2019, dated 2024).)
